In brackets after ≈: the same amount, converted by molar mass. Entries after “also recorded” stand apart in the source; their conditions may differ. Where a SMILES comes first, the peptide text is derived from it. Where no end group is shown, it is not given here. [ ]: non-standard residue; d: D form.
What was measured:
B. thailandensis biofilm = format: cell-based, Burkholderia thailandensis
[1] = tested on: B. thailandensis E264 pre-formed biofilm; format: cell-based, Burkholderia thailandensis; settings: n = 8
B. thailandensis (E264) = settings: pH 7.4
B. pseudomallei = settings: cited from earlier work
[2] = tested on: multiple Burkholderia species; settings: cited from earlier work

Compound: CC(C)(O/N=C(\C(=O)N[C@@H]1C(=O)N2C(C(=O)[O-])=C(C[n+]3ccccc3)CS[C@H]12)c1csc(N)n1)C(=O)O [Ceftazidime]
- biofilm inhibition (B. thailandensis biofilm): did not inhibit biofilm production; also recorded: did not show biofilm inhibition

Compound: CC(C)C[C@@H](NC(=O)[C@@H](CCCCN)NC(=O)[C@@H](CCCCN)NC(=O)[C@@H](Cc1ccccc1)NC(=O)[C@@H](Cc1ccccc1)NC(=O)[C@@H](CCCCN)NC(=O)[C@@H](CCCCN)NC(=O)[C@@H](C)NC(=O)[C@@H](CCCNC(=N)N)NC(=O)[C@H](N)CCCCN)C(=O)N[C@H](CCCCN)C(N)=O [D-ATRA-1A] (H-[dK][dR][dA][dK][dK][dF][dF][dK][dK][dL][dK]-NH2; N-terminus and C-terminus assumed)
- biofilm inhibition (B. thailandensis biofilm): did slightly, but only at the highest concentration of peptide tested (300 μg/ml); also recorded: Minimal biofilm inhibition
- dispersion of pre-formed biofilm [1]: no biofilm dispersion activity
- EC50 (B. thailandensis (E264); 3 h): 4.82 µM
- EC50 (μg/ml) (B. thailandensis (E264); 3 h): 6.86 µg/mL (≈ 4.83 µM)

Compound: GLKLRFEFSKIKGEFLKTPEVRFRDIKLKDNRISVQR [Scrambled LL-37]
- biofilm inhibition (B. thailandensis biofilm): did not inhibit biofilm; also recorded: did not show biofilm inhibition

Compound: HNP-3
- antimicrobial activity / whether an EC50 could be determined (B. thailandensis (E264)): could not be calculated because the peptide was ineffective

Compound: HNP-4 (VCSCRLVFCRRTELRVGNCLIGGVSFTYCCTRV; ends and bridges not checked; cysteine pairing not given here; UniProt P12838 64-96, looked up)
- antimicrobial activity / whether an EC50 could be determined (B. thailandensis (E264)): could not be calculated because the peptide was ineffective

Compound: KRAKKFFKKLK-NH2 [ATRA-1A]
- EC50 (B. thailandensis (E264); 3 h): 9.83 µM

Compound: KRAKKFFKKPK [ATRA-2]
- biofilm inhibition (B. thailandensis biofilm): did not inhibit biofilm formation; also recorded: not biofilm inhibition
- dispersion of pre-formed biofilm [1]: no biofilm dispersion activity

Compound: KRFKKFFKKLK [ATRA-1]
- EC50 (B. thailandensis (E264); 3 h): 6.94 µM

Compound: RGRKSSRRKK [Peptide 4 of hBD-3]
- antimicrobial activity / whether an EC50 could be determined (B. thailandensis (E264)): could not be calculated because the peptide was ineffective
- killing of B. thailandensis at highest concentration tested (B. thailandensis (E264)): 65%

Compound: bactenecin
- antimicrobial activity against B. pseudomallei (B. pseudomallei): antimicrobial against B. pseudomallei

Compound: hBD-3 (GIINTLQKYYCRVRGGRCAVLSCLPKEEQIGKCSTRGRKCCRRKK; ends and bridges not checked; cysteine pairing not given here; UniProt P81534 23-67, looked up)
- LD50 against multiple Burkholderia species [2]: > 100 µg/mL

Reference: publication PMC4510350 (PLoS Neglected Tropical Diseases, 2015)
